Among the data in patent US9475805B2, “Tricyclic compound” (Kyowa Hakko Kirin Co., Ltd., priority 2008, dated 2016) are EC50 values, retold here.

Each structure is given as a SMILES string.

By EC50 is commonly meant the concentration needed to bring the measured effect to its halfway point. A lower EC50 goes with greater potency.

This experiment addresses T1, PPAR γ (Homo sapiens, UniProt P37231).
T1 construct: expressed in transfected cells; host or cells: HEK293EBNA
T1 sequence (P37231 174-475 isoform P37231-2): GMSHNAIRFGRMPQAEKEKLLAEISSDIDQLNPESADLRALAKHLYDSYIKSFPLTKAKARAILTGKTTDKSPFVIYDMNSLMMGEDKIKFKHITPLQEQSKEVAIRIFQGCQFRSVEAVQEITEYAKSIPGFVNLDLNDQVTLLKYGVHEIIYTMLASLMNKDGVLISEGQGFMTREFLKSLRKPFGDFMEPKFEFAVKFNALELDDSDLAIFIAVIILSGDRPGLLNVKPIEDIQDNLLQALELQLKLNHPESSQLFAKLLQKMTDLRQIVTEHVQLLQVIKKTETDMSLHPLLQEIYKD
Briefly: PPAR γ activation action based on transactivation assay of PPAR γ by transient gene transfer (GAL4-PPAR γ chimeric receptor, luciferase reporter, HEK293EBNA cells). The format is cell-based. The conditions noted are these: concentration showing 50% of the compound's own efficacy (maximum activity rate relative to pioglitazone 10 μmol/L = 100%), 24 hr. As for the experimental part:
The agonist activity of compound (I) to PPAR γ was determined by a transactivation assay method using a chimeric nuclear receptor of a DNA binding region of a yeast transcription factor GAL4 and a PPAR γ ligand binding region. Specifically, the PPAR γ agonist activity of compound (I) was evaluated by the following method based on the method of Lehmann et al. (J Biol Chem., 1995, vol. 270, page 12953).
HEK293EBNA cells cultured in Dulbecco's Modified Eagle medium (Invitrogen) containing 10 v/v % fetal calf serum (Invitrogen) were used. 30 mL of the above-mentioned cells (density: 1×10^5 cells/mL) were inoculated in a […] (Iwaki Glass), and cultured overnight. Using SuperFect Transfection Reagent (QIAGEN), a plasmid expressing a GAL4-PPAR γ chimeric nuclear receptor fusing 174-475 amino acids, which are human PPAR γ ligand binding region, and 1-147 amino acids, which are GAL4 DNA binding region, and a reporter plasmid expressing a GAL4 responsive luciferase were transiently introduced into the cells at a proportion of 4:1. After 5 hr from transfection, the cells were detached from the culture dish, and the detached cells (density: 2×10^4 cells/mL) were inoculated by 100 μL in each well of a 96 well white plate (SUMITOMO BAKELITE), and cultured overnight. The medium was removed, compound (I) diluted in various concentrations with serum-free Dulbecco's Modified Eagle medium was added by 100 μL, and the mixture was reacted under a 5% carbon dioxide gas stream (5% CO2) at 37° C. for 24 hr. On the other hand, as a positive control, 10 μmol/L of pioglitazone (100 μL) was added, and the mixture was reacted under a 5% carbon dioxide gas stream (5% CO2) at 37° C. for 24 hr. As a substrate of luciferase, 100 μL of Steady-Glo (Promega) was added to each well and the mixture was thoroughly stirred. Immediately thereafter, the chemical luminescence due to luciferase was measured using TopCount NTX (Packard).
The agonist activity (activity rate (%)) of compound (I) to PPAR γ was calculated according to the following formula, as a relative activity when the agonist activity on addition of pioglitazone (10 μmol/L) was 100%.
For orientation: In a reporter assay the amount or activity of a reporter protein is the signal.
Compound `CCC/C(=C1/c2ccc(Cn3c(CCC)nc4ccccc43)cc2COc2ccccc21)c1noc(=O)[nH]1` [Compound 115, (E)-11-[1-(5-Oxo-4,5-dihydro-1,2,4-oxadiazol-3-yl)butylidene]-8-(2-propylbenzimidazol-1-yl)methyl-6,11-dihydrodibenzo[b,e]oxepine] showed a concentration giving a half-maximal response (EC50) of 36 nM. In the case of `CCCc1nc2ccccc2n1Cc1ccc2c(c1)COc1ccc(F)cc1/C2=C(\C)c1noc(=O)[nH]1` [Compound 116, (E)-2-Fluoro-8-(2-propylbenzimidazol-1-yl)methyl-11-[1-(5-oxo-4,5-dihydro-1,2,4-oxadiazol-3-yl)ethylidene]-6,11-dihydrodibenzo[b,e]oxepine] it was 12 nM; in that of `C/C(=C1\c2ccccc2OCc2nc(Cn3c(C4CC4)nc4c(Cl)ccnc43)ccc21)c1noc(=O)[nH]1` [Compound 119, (E)-2-(7-Chloro-2-cyclopropyl-3H-imidazo[4,5-b]pyridin-3-yl)methyl-5-[1-(5-oxo-4,5-dihydro-1,2,4-oxadiazol-3-yl)ethylidene]-5,11-dihydrobenzooxepino[3,4-b]pyridine], 314 nM.
